Numbering of substitutions follows the chain as printed.
Columns and labels:
[1] = target: T1, A1R (A1R-FlpInCHO cells) (Homo sapiens, UniProt P30542); assay: Inhibition of forskolin-stimulated cAMP accumulation: NECA potency ± compound and compound alone; assay type: cell-based
T1 sequence (P30542 1-326): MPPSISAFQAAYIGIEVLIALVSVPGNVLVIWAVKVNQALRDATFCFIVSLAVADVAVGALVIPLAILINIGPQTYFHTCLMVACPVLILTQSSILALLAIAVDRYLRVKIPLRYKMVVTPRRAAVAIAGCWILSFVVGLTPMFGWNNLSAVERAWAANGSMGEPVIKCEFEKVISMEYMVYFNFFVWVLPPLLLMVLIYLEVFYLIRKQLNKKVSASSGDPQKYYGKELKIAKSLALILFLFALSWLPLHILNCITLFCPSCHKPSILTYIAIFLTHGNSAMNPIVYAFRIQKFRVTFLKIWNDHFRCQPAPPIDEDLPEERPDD
Method: (§1) FlpInCHO cell lines and cortical neuron cells were seeded into transparent 96-well plates at 20,000 cells/well and incubated for 16 to 20 h in a humidified incubator at 37 °C in 5% CO2. […] Compounds were added at either a single concentration (10 or 30 μM) or a concentration range for full interaction studies (3 to 30 μM), and plates were incubated for 30 to 60 min at 37 °C in a humidified chamber. […] After 30 min incubation at 37 °C, the reaction was terminated by rapid removal of buffer and the addition of 50 μL/well cold ethanol. […] Agonist concentration–response curves were normalized to the response mediated by 3 µM forskolin […].
Response=Basal+Emax-Basal×A/EC50+A,

[2] = target: T2, A1R allosteric site (A1R-FlpINCHO cells, wild type) (Homo sapiens, UniProt P30542); assay: Whole-cell [3H]DPCPX interaction binding with NECA, allosteric ternary complex model
T2 sequence (P30542 1-326): T1 sequence (P30542 1-326)
Method: [^3H]DPCPX (8-cyclopentyl-1,3-dipropylxanthine, [dipropyl-2,3-^3H(N)]) whole-cell binding assays were performed on FlpINCHO cells stably expressing either WT (nontagged or 3xHA-tagged) or mutant 3xHA-A1R. Cells were seeded into a transparent 96-well plate at 40,000 cells/well in DMEM containing 10% FBS. Following 8 h incubation in a humidified environment at 37 °C in 5% CO2, cells were washed and maintained in serum-free DMEM for approximately 18 h at 37 °C in 5% CO2. […] Assays were terminated by washing twice with 100 μL/well cold phosphate-buffered saline, followed by the addition of 100 μL OptiPhase Supermix™ scintillation cocktail and bound radioactivity measured using a MicroBeta^2 ™ plate counter (PerkinElmer).
Equilibrium binding interaction experiments were fitted to the following allosteric ternary complex model.[3] Y=BmaxA/A+KAKB/αAB+KB1+[I]/KI+[B]/KB+αII[B]/KIKB,
A cooperativity factor α > 1 describes positive cooperativity; a value 0 < α < 1 describes negative cooperativity, and a value of α = 1 describes neutral cooperativity.

[3] = target: T1, A1R (A1R-FlpInCHO cells); assay: NECA/allosteric ligand interaction in cAMP accumulation, operational model of allosterism; assay type: cell-based
Method: as §1
[5] E=EmτAAKB+αβ[B]+τB[B]KA^n/AKB+KAKB+[B]KA+α[A][B]^n+τAAKB+αβ[B]+τB[B]KA^n
Orthosteric agonist and allosteric ligand affinity were constrained to values determined from radioligand binding.

[4] = target: T3, A1R S246^6.47A mutant (Homo sapiens, UniProt P30542, S246A); design: method as in PMID 34497422; details: cited from earlier work
T3 construct: expressed in transfected cells; host or cells: FlpInCHO cells, stably transfected
T3 sequence (P30542 1-326 S246A): T1 sequence (P30542 1-326) with S246A

[5] = target: T4, A1R G279^7.44A mutant (Homo sapiens, UniProt P30542, G279A); design: method as in PMID 34497422; details: cited from earlier work
T4 construct: expressed in transfected cells; host or cells: FlpInCHO cells, stably transfected
T4 sequence (P30542 1-326 G279A): T1 sequence (P30542 1-326) with G279A

[6] = design: method as in PMID 34497422; details: in vitro liver microsome assays; cited from earlier work
[7] = design: method as in PMID 34497422; details: rat model; cited from earlier work

Nc1scc(-c2cc(C(F)(F)F)cc(C(F)(F)F)c2)c1C(=O)c1ccc(Cl)cc1 [compound 1, reference compound]
inhibition of 3 μM forskolin-stimulated cAMP accumulation ([1]; 30 μM compound in the absence of NECA, for NECA: maximal response): 83%
functional response relative to NECA maximal response ([1]; 30 μM, absence of NECA): approximately 80%
allosteric ligand affinity (pKB) ([2]; allosteric ternary complex model, n = 4): 5.18 ± 0.21
binding cooperativity with NECA (logα) ([2]; allosteric ternary complex model, orthosteric agonist NECA): 2.09 ± 0.22
positive cooperativity between PAM and NECA ([2]; approximate, from logα): approximately 100 fold
Kd ([2]; approximate, from pKB, read-out: affinity for the A1R allosteric site): ~8 µM
allosteric ligand efficacy (logτB) ([3]; allosteric agonism in cAMP): 0.56 ± 0.06
functional cooperativity with NECA (logαβ) ([3]; cAMP): 0.78 ± 0.15
effect of binding site mutation on affinity [4]: small (four- to seven-fold) but significant reduction
effect of binding site mutation on affinity [5]: small (four- to seven-fold) but significant reduction
metabolism in liver microsomes [6]: rapid metabolism
in vivo analgesic efficacy [7]: in vivo analgesic efficacy
